Measurements reported in patent US8106197B2, “Aminoheteroaryl compounds as protein kinase inhibitors” (Pfizer Inc., priority 2003, dated 2012).
Read-outs that look alike come from different tables or passages of the source.

Target: T1, HGFR (Homo sapiens, UniProt P08581)
T1 construct: purchased Upstate 14-526
Experiment: HGFR continuous-coupled spectrophotometric assay
Format: biochemical
Details: for I(%): Table 3, Ki(μM) or I(%), test concentration not given; for inhibition at 1 µM: Table 6, percent c-MET inhibition at 1 μM, read-out: % inhibition

[1] = Table 5, percent c-MET inhibition at 50 nM

T1 sequence (P08581 974-1390 limits assumed): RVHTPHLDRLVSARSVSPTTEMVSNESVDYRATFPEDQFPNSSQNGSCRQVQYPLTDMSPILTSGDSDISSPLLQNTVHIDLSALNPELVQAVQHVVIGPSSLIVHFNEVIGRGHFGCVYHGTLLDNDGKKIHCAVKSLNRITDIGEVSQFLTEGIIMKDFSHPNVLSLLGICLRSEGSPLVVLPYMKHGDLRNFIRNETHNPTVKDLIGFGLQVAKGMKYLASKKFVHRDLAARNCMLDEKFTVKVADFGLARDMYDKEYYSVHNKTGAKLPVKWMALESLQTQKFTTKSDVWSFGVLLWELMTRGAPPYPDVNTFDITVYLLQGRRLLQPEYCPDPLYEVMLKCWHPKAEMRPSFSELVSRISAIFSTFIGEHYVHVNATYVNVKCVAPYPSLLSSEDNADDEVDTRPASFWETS

| SMILES | inhibition at 1 µM [%] | % inhibition | further results |
| --- | --- | --- | --- |
| Cc1cccc(C)c1-c1cnc(N)c(OC(C)c2c(Cl)ccc(F)c2Cl)c1 (centres unmarked) [Example I-567, 3-[1-(2,6-Dichloro-fluoro-pheny)-ethoxy]-5-(2,6-dimethylphenyl)-pyridin-2-ylamine] | – | – | I(%): 0% |
| Nc1ncc(C(=O)NCc2cccc(OC(F)F)c2)cc1OCc1c(Cl)cccc1Cl | 32 | – | – |
| CCCCc1nc(COc2cc(-c3ccc(C(=O)N4CCC(N5CCCC5)CC4)cc3)cnc2N)c[nH]1 | – | % inhibition = 16 | – |
| CN(CCC1CCC(=O)N1CC(F)(F)F)C(=O)c1cnc(N)c(OCc2c(Cl)cccc2Cl)c1 (centres unmarked) | 25 | – | – |
| Nc1ncc(-c2ccc(C(=O)N3CCC(N4CCCC4)CC3)cc2)cc1OCc1c(F)ccc(F)c1F | – | % inhibition = 30 | – |
| CC(Oc1cc(-c2ccc(C(=O)N3CCCCC3COc3ccccc3)cc2)cnc1N)c1c(Cl)ccc(F)c1Cl (centres unmarked) | – | – | inhibition at 0.05 µM [1]: 53% |
| CCN(CC)C(=O)C1CCCN(C(=O)c2cnc(N)c(OCc3c(Cl)cccc3Cl)c2)C1 (centres unmarked) | 33 | – | – |
| Nc1ncc(C(=O)N2CCCCC2CCO)cc1OCc1c(Cl)cccc1Cl (centres unmarked) | 33 | – | – |
| CC(Oc1cc(-c2ccc(C(=O)NC[C@@H]3CCCC[C@H]3O)cc2)cnc1N)c1c(Cl)ccc(F)c1Cl (some centres unmarked) | – | – | inhibition at 0.05 µM [1]: 67% |
| CN1CCC(N(C)C(=O)c2cnc(N)c(OCc3c(Cl)cccc3Cl)c2)C1 (centres unmarked) | 33 | – | – |
| Nc1ncc(-c2ccc(C(=O)N3CCC(N4CCCC4)CC3)cc2)cc1OCc1csc(-c2ccc(C(F)(F)F)cc2)n1 | – | % inhibition = 21 | – |
| COc1cc(COc2cc(-c3ccc(C(=O)N4CCC(N5CCCC5)CC4)cc3)cnc2N)cc(OC)c1OC | – | % inhibition = 10 | – |
| CC(Oc1cc(-c2ccccc2C(F)(F)F)cnc1N)c1c(Cl)ccc(F)c1Cl (centres unmarked) [Example I-559, 3-[1-(2,6-Dichloro-3-fluoro-phenyl)-ethoxy]-5-(2-trifluoromethyl-phenyl)-pyridin-2-ylamine] | – | – | I(%): 4% |
| Cc1ccn2cc(COc3cc(-c4ccc(C(=O)N5CCC(N6CCCC6)CC5)cc4)cnc3N)nc2c1 | – | % inhibition = 18 | – |
| CS(=O)(=O)CCN1CCN(C(=O)c2cnc(N)c(OCc3c(Cl)cccc3Cl)c2)CC1 | 25 | – | – |
| CC(Oc1cc(-c2ccc(C(=O)N[C@H](CO)c3ccccc3)cc2)cnc1N)c1c(Cl)ccc(F)c1Cl (some centres unmarked) | – | – | inhibition at 0.05 µM [1]: 69% |
| CCC(C)NC(=O)c1ccc(-c2cnc(N)c(OC(C)c3c(Cl)ccc(F)c3Cl)c2)cc1 (centres unmarked) | – | – | inhibition at 0.05 µM [1]: 64% |
| N#CCCN1CCN(C(=O)c2cnc(N)c(OCc3c(Cl)cccc3Cl)c2)CC1 | 19 | – | – |
| Cc1cc(C)nc(COc2cc(-c3ccc(C(=O)N4CCC(N5CCCC5)CC4)cc3)cnc2N)n1 | – | % inhibition = 16 | – |
| COc1c(C)cnc(COc2cc(-c3ccc(C(=O)N4CCC(N5CCCC5)CC4)cc3)cnc2N)c1C | – | % inhibition = 20 | – |
| Nc1ncc(-c2ccc(C(=O)N3CCC(N4CCCC4)CC3)cc2)cc1OCc1nc(-c2ccccn2)no1 | – | % inhibition = 9 | – |
| Nc1ncc(C(=O)NCCc2nc3ccccc3s2)cc1OCc1c(Cl)cccc1Cl | 26 | – | – |
| Nc1ncc(-c2ccc(C(=O)N3CCC(N4CCCC4)CC3)cc2)cc1OCc1ccc(S(N)(=O)=O)cc1 | – | % inhibition = 17 | – |
| Nc1ncc(C(=O)NCc2ccc(OC(F)(F)F)cc2)cc1OCc1c(Cl)cccc1Cl | 24 | – | – |

| SMILES | inhibition at 1 µM [%] | % inhibition | further results |
| --- | --- | --- | --- |
| CCOC(=O)CCNC(=O)c1cccc(COc2cc(-c3ccc(C(=O)N4CCC(N5CCCC5)CC4)cc3)cnc2N)c1 | – | % inhibition = 14 | – |
| CCc1ccc(COCC2CCN(C(=O)c3cnc(N)c(OCc4c(Cl)cccc4Cl)c3)CC2)nc1 | 41 | – | – |
| CCOc1ccccc1-c1cnc(N)c(OC(C)c2c(Cl)ccc(F)c2Cl)c1 (centres unmarked) [Example I-555, 3-[1-(2,6-Dichloro-3-fluoro-phenyl)-ethoxy]-5-(2-ethoxy-phenyl)-pyridin-2-ylamine] | – | – | I(%): 22% |
| CCc1ccc(COc2cc(-c3ccc(C(=O)N4CCC(N5CCCC5)CC4)cc3)cnc2N)nc1 | – | % inhibition = 15 | – |
| Nc1ncc(-c2ccc(C(=O)N3CCC(N4CCCC4)CC3)cc2)cc1OCc1nc2ncccn2n1 | – | % inhibition = 19 | – |
| Nc1ncc(-c2ccc(C(=O)N3CCC(N4CCCC4)CC3)cc2)cc1OCc1cscn1 | – | % inhibition = 12 | – |
| Cc1ccc(-c2nnc(COc3cc(-c4ccc(C(=O)N5CCC(N6CCCC6)CC5)cc4)cnc3N)o2)cc1 | – | % inhibition = 18 | – |
| CCCCOc1ccc(CNC(=O)c2cnc(N)c(OCc3c(Cl)cccc3Cl)c2)cc1 | 18 | – | – |
| CC(Oc1cc(-c2ccc(C(=O)NC[C@H](O)c3ccccc3)cc2)cnc1N)c1c(Cl)ccc(F)c1Cl (some centres unmarked) | – | – | inhibition at 0.05 µM [1]: 69% |
| Nc1ncc(-c2ccc(C(=O)N3CCC(N4CCCC4)CC3)cc2)cc1OCc1cccc(Cl)c1F | – | % inhibition = 28 | – |
| CCN1CCCC1CNC(=O)c1cccc(COc2cc(-c3ccc(C(=O)N4CCC(N5CCCC5)CC4)cc3)cnc2N)c1 (centres unmarked) | – | % inhibition = 10 | – |
| Cc1noc(C)c1-c1nc(COc2cc(-c3ccc(C(=O)N4CCC(N5CCCC5)CC4)cc3)cnc2N)no1 | – | % inhibition = 6 | – |
| Nc1ncc(-c2ccc(C(=O)N3CCC(N4CCCC4)CC3)cc2)cc1OCc1ccc(C(=O)N2CCN(Cc3ccccc3)CC2)cc1 | – | % inhibition = 12 | – |
| Cn1nc(C2CC2)nc1COc1cc(-c2ccc(C(=O)N3CCC(N4CCCC4)CC3)cc2)cnc1N | – | % inhibition = 5 | – |
| Nc1ncc(C(=O)N2CCCC(N3CCOCC3)CC2)cc1OCc1c(Cl)cccc1Cl (centres unmarked) | 18 | – | – |
| Cc1nc(COc2cc(-c3ccc(C(=O)N4CCC(N5CCCC5)CC4)cc3)cnc2N)n(C)n1 | – | % inhibition = 14 | – |
| Nc1ncc(C(=O)N2CCN(CCOCCO)CC2)cc1OCc1c(Cl)cccc1Cl | 33 | – | – |
| CCc1nc(COc2cc(-c3ccc(C(=O)N4CCC(N5CCCC5)CC4)cc3)cnc2N)no1 | – | % inhibition = 5 | – |
| CC(Oc1cc(-c2ccccc2OC(F)(F)F)cnc1N)c1c(Cl)ccc(F)c1Cl (centres unmarked) [Example I-561, 3-[1-(2,6-Didiloro-3-fluoro-phenyl)-ethoxy]-5-(2-trifluoromethoxy-phenyl)-pyridin-2-ylamine] | – | – | I(%): 14% |
| COCCN1CCN(C(=O)c2cnc(N)c(OCc3c(Cl)cccc3Cl)c2)CC1 | 27 | – | – |
| CC(Oc1cc(-c2ccc(C(=O)N3CCCC(O)C3)cc2)cnc1N)c1c(Cl)ccc(F)c1Cl (centres unmarked) | – | – | inhibition at 0.05 µM [1]: 85% |
| CC(Oc1cc(-c2ccc(C(=O)N[C@H]3CC[C@H](O)CC3)cc2)cnc1N)c1c(Cl)ccc(F)c1Cl (some centres unmarked) [drawing 1011] | – | – | % inhibition (Table 5, percent c-MET inhibition at 50 nM, 0.05 µM): % inhibition = 72 |
| Nc1ncc(-c2ccc(C(=O)N3CCC(N4CCCC4)CC3)cc2)cc1OCc1ccc(C(=O)NC2CCN(Cc3ccccc3)C2)cc1 (centres unmarked) | – | % inhibition = 24 | – |
| COC(=O)c1ccc(-c2cnc(N)c(OC(C)c3c(Cl)ccc(F)c3Cl)c2)c(C)c1 (centres unmarked) [Example I-548, 4-{6-Amino-5-[1-(2,6-dichloro-3-fluoro-phenyl)-ethoxy]-Pyndin-3-yl}-3-methyl-benzoic acid methyl ester] | – | – | I(%): 17% |

Now from value to compound, other results behind:

| inhibition at 1 µM [%] | % inhibition | SMILES | further results |
| --- | --- | --- | --- |
| 20 | – | Cc1cc2cc(CNC(=O)c3cnc(N)c(OCc4c(Cl)cccc4Cl)c3)ccc2[nH]1 | – |
| – | % inhibition = 16 | Nc1ncc(-c2ccc(C(=O)N3CCC(N4CCCC4)CC3)cc2)cc1OCc1noc(-c2ccccc2)n1 | – |
| – | % inhibition = 11 | CS(=O)(=O)c1ccc(COc2cc(-c3ccc(C(=O)N4CCC(N5CCCC5)CC4)cc3)cnc2N)cc1 | – |
| 37 | – | Nc1ncc(C(=O)NCc2ccc(O)cc2)cc1OCc1c(Cl)cccc1Cl | – |
| – | % inhibition = 26 | Nc1ncc(-c2ccc(C(=O)N3CCC(N4CCCC4)CC3)cc2)cc1OCc1cc(F)ccc1C(F)(F)F | – |
| 18 | – | CN(CCc1ccccn1)CC1(O)CCN(C(=O)c2cnc(N)c(OCc3c(Cl)cccc3Cl)c2)C1 (centres unmarked) | – |
| 16 | – | Nc1ncc(C(=O)NCc2ccc[nH]c2=O)cc1OCc1c(Cl)cccc1Cl | – |
| 10 | – | CN(C)C(=O)c1cnc(N)c(OCc2c(Cl)cccc2Cl)c1 | – |
| – | % inhibition = 10 | Cn1c(COc2cc(-c3ccc(C(=O)N4CCC(N5CCCC5)CC4)cc3)cnc2N)nc2ccccc21 | – |
| 16 | – | Nc1ncc(C(=O)N2CCCC(F)(F)C2)cc1OCc1c(Cl)cccc1Cl | – |
| 21 | – | Nc1ncc(C(=O)N2CCCC(C(=O)N3CCOCC3)C2)cc1OCc1c(Cl)cccc1Cl (centres unmarked) | – |
| – | % inhibition = 10 | Cc1noc(C)c1COc1cc(-c2ccc(C(=O)N3CCC(N4CCCC4)CC3)cc2)cnc1N | – |
| 25 | – | Nc1ncc(C(=O)N2CCCC(Cc3ncccn3)C2)cc1OCc1c(Cl)cccc1Cl (centres unmarked) | – |
| 36 | – | Nc1ncc(C(=O)N2CCCC(O)(COc3cccc(F)c3)C2)cc1OCc1c(Cl)cccc1Cl (centres unmarked) | – |
| – | % inhibition = 14 | Nc1ncc(-c2ccc(C(=O)N3CCC(N4CCCC4)CC3)cc2)cc1OCc1cccc(C(=O)NCc2cccnc2)c1 | – |
| – | % inhibition = 17 | Nc1ncc(-c2ccc(C(=O)N3CCC(N4CCCC4)CC3)cc2)cc1OCc1nc2ccccc2s1 | – |
| – | % inhibition = 14 | Nc1ncc(-c2ccc(C(=O)N3CCC(N4CCCC4)CC3)cc2)cc1OCc1nnn[nH]1 | – |
| 31 | – | Nc1ncc(C(=O)N2CCN(CC(=O)N3CCOCC3)CC2)cc1OCc1c(Cl)cccc1Cl | – |
| 35 | – | CC(O)CCNC(=O)c1cnc(N)c(OCc2c(Cl)cccc2Cl)c1 (centres unmarked) | – |
| – | % inhibition = 8 | Nc1ncc(-c2ccc(C(=O)N3CCC(N4CCCC4)CC3)cc2)cc1OCc1nccn1Cc1ccccc1 | – |
| – | % inhibition = 12 | Nc1ncc(-c2ccc(C(=O)N3CCC(N4CCCC4)CC3)cc2)cc1OCc1ccc(C(F)(F)F)cc1C(F)(F)F | – |
| – | % inhibition = 27 | Nc1ncc(-c2ccc(C(=O)N3CCC(N4CCCC4)CC3)cc2)cc1COc1ccc2ccccc2c1 | – |
| – | % inhibition = 64 | Nc1ncc(-c2ccc(C(=O)N3CCC(N4CCCC4)CC3)cc2)cc1OCc1nc(-c2cccc(C(=O)Nc3ccc(F)cc3)c2)no1 | – |
| 30 | – | Cc1nc[nH]c1CN1CCC2(CC1)CC(NC(=O)c1cnc(N)c(OCc3c(Cl)cccc3Cl)c1)CO2 (centres unmarked) | – |
| – | % inhibition = 21 | CC(Oc1cc(-c2ccc(C(=O)N3CCC(N4CCCC4)CC3)cc2)cnc1N)c1ccccc1C(F)(F)F (centres unmarked) | – |
| 27 | – | COc1ccc(C(NC(=O)c2cnc(N)c(OCc3c(Cl)cccc3Cl)c2)C2CC2)cc1 (centres unmarked) | – |
